{"source": "paper PMC2873402", "about": "“Discovery of High-Affinity Protein Binding Ligands – Backwards” (PLoS ONE, 2010)", "key": {"AKT1 [1]": {"target": "T1, AKT1 (Homo sapiens, UniProt P31749)", "T1 sequence (P31749 whole entry)": "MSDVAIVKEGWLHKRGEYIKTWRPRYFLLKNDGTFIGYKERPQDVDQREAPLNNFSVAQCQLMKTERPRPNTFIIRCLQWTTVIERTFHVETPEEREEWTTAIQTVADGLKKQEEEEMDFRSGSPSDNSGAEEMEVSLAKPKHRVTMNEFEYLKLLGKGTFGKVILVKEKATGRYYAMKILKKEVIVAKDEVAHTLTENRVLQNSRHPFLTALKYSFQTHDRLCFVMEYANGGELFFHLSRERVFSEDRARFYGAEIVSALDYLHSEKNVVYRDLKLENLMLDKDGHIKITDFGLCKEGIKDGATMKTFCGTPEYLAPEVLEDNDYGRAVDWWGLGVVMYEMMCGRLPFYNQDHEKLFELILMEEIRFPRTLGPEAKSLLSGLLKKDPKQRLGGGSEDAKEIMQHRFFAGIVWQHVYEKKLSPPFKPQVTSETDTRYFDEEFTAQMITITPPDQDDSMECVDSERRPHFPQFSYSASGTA", "assay": "IP of AKT1 from solution, Western Blot", "assay_type": "binding", "parameters": "purchased Life Technologies", "conditions": "synbody with C-terminal Lys-Biotin on streptavidin magnetic beads, 89 nM to 0.7 nM AKT1, overnight, 4°C", "procedure": "The synbody was tested for its ability to bind native protein in solution. A variant of the synbody was prepared in which the C-terminal Cys was replaced with a Lys-Biotin. The synbody was used in an immunoprecipitation (IP) experiment in which it was bound to streptavidin magnetic beads and incubated overnight with 89 nM to 0.7 nM solutions of AKT1. The beads were washed extensively and the bound protein was eluted. Samples were run on a SDS-PAGE gel and detected by Western Blot with an anti-AKT1 monoclonal antibody (Figure 3B).\n(§1) For all IP experiments, either a 1 µM or 250 nM solution of biotin-conjugated synbody was captured on 20 µL of streptavidin coated paramagnetic M-280 Dynabeads (Life Technologies) according to the manufacturers protocol. Synbody coated beads were washed five times with 1 mL of 100 mM phosphate buffered saline containing 0.05% Tween-20 (PBST) and incubated overnight at 4°C with shaking in the desired amount of target protein in A549 cell lysate. For Kd determination experiments, serial dilutions of AKT1 or ABL1 were prepared in binding buffer. After binding, beads were washed five times with 1 mL of PBST and heated at 70°C in 20 µL of 1× LDS loading buffer (Invitrogen) for 10 minutes. The samples were analyzed by SDS-PAGE gel with Western Blot detection using the appropriate antibody and imaged on a GE Healthcare Typhoon Trio."}, "AKT1 [2]": {"target": "T1, AKT1", "assay": "Protein array (ProtoArray), binding to AKT1", "parameters": "purchased Life Technologies", "conditions": "200 nM synbody, fluorescently labeled streptavidin", "source_text": "(§2) To test this approach, a candidate synbody was constructed using two peptides, […] and […], referred to as peptides 1 and 2, respectively. The sequences of the first 17 aa of these peptides were generated using a random number generator and three constant positions on the C-terminus that served as a spacer between the linker scaffold and the active portion of each peptide. A divergent synthetic method was used in which peptide 1 was synthesized from C to N terminus from the α-amine of lysine and peptide 2 was synthesized from the ε-amine of lysine (Figure 2A, Materials and Methods S1, Figure S1). The synbody was tagged on the C-terminus with biotin and screened against a Life Technologies ProtoArray™. ProtoArrays are nitrocellulose coated slides onto which 8,303 recombinant human proteins have been spotted. After a 2-hour incubation, the array was washed and bound synbody was detected using fluorescently labeled streptavidin. […]\n(§3) Synbodies were screened on an Invitrogen ProtoArray™ (Life Technologies, Carlsbad, CA, USA) detected with Alexa-555 labeled streptavidin (Life Technologies), and scanned using a Perkin Elmer ProScan Array HTP. The spots were analyzed using GenePix Pro (Molecular Devices, Sunnyvale, CA, USA) and data were processed using Genespring GX (Agilent Technologies, Santa Clara, CA, USA). […]"}, "AKT1 [3]": {"target": "T1, AKT1", "assay": "IP of AKT isoforms spiked into A549 lysate: AKT1", "assay_type": "binding", "parameters": "purchased Life Technologies", "conditions": "250 ng of each isoform in 500 µg A549 lysate, Western Blot", "procedure": "(§4) This apparent specificity was investigated further by performing an IP using 250 ng of each isoform of AKT spiked into 500 µg of A-549 cell lysate.\nas §1"}, "[4]": {"tested_on": "8,303 recombinant human proteins", "assay": "Protein array (ProtoArray) screen of synbodies", "assay_type": "binding", "conditions": "200 nM biotin synbody, Alexa-555 streptavidin detection, background-subtracted fluorescence", "source_text": "as §2, §3"}, "AKT1 [5]": {"target": "T1, AKT1", "assay": "SPR screening against immobilized AKT1", "assay_type": "binding", "parameters": "purchased Life Technologies", "conditions": "100 nM synbody, Biacore T-100, CM5 amine coupling, 25°C immobilization, 90 s association, 240 s dissociation", "procedure": "The synbody (100nM concentration) was screened by Surface Plasmon Resonance (SPR) against immobilized AKT1 and GRP58 on a Biacore T-100 SPR. The synbody appeared to have high affinity for AKT1 and low affinity for GRP58 (Figure S2). To accurately determine the binding kinetics of the synbody-AKT1 complex, several concentrations of synbody were injected over a low-density surface of biotin-labeled AKT1 captured on a Neutratvidin SPR chip using a Biacore A-100.\nSPR screening of the synbody against AKT1 and GRP58 was performed on a Biacore T-100 (GE Healthcare, Piscataway, NJ, USA). The series S sensor chip CM5, amine coupling reagents and HBS-EP were obtained from GE Healthcare. A standard amine immobilization protocol was performed at 25°C using NaHCO3 (10mM in 150mM NaCl, pH 4.5) as the immobilization buffer. The CM-5 dextran chip was activated by a 10 minute injection of a freshly prepared 1∶1 solution of 400 mM 1-ethyl-3-(3-dimethylaminopropyl)-carbodimide (EDC): 100 mM N-hydroxysuccimide (NHS) in water. The NHS-carboxy groups of the dextran surface were treated with a solution of AKT1 or GRP58 (25 µg/ml) in sodium acetate (pH 5.0) for 8 mins at a flow rate of 10 µl/min. Any residual active sites were then quenched by a 5 min pulse of ethylene diamine (1M, pH 8.5). […]"}, "AKT2": {"tested_on": "AKT2", "assay": "IP of AKT isoforms spiked into A549 lysate: AKT2", "assay_type": "binding", "conditions": "250 ng of each isoform in 500 µg A549 lysate, Western Blot", "procedure": "as §4, §1"}}, "note": "Entries after “also recorded” stand apart in the source; their conditions may differ. Bridge positions count the residues as written; N and C are the ends. Ends that are not written are not given here. I, II: the chains in the order shown. * marks the point of attachment. StBu = CC(C)(C)S*"}
{"substance": "I: AHKVVPQRQIRHAYNRYGSGKC(StBu)-NH2 / II: FRGWAHIFFGPHVIYRGGSG (amide I:21-II:C) [synbody]", "values": [{"measurement": "IP of AKT1 from solution", "setting": "AKT1 [1]", "value": "bound AKT1 from solution"}, {"measurement": "binding to AKT1 on protein array (top 10 proteins)", "setting": "AKT1 [2]", "value": "twice in the top 10 proteins bound by the synbody"}, {"measurement": "IP of AKT1 (isoform selectivity)", "setting": "AKT1 [3]", "value": "selectively precipitates AKT1"}, {"measurement": "proteins bound on protein array", "setting": "[4]", "value": "bound few proteins on the array; also recorded: bound several different proteins including PCCA, CASZ1, GRP58, NOB1, and AKT1"}, {"measurement": "affinity for AKT1 by SPR screening", "setting": "AKT1 [5]", "value": "high affinity"}, {"measurement": "IP of AKT2 (isoform selectivity)", "setting": "AKT2", "value": "relatively little"}]}
